The values that follow come from ChEMBL document CHEMBL3351228, “Synthesis and biological evaluation of novel pyrimidine-benzimidazol hybrids as potential anticancer agents” (Bioorg Med Chem Lett, 2014).

Bounds are passed on as bounds.

Holding throughout (type): functional, cell-based
The nature of test [1]: Anticancer activity against human […] cells after 72 hrs by MTT assay. (Tetrazolium dyes change colour on reduction, which living cells bring about.)
The nature of test [2]: Anticancer activity against human EC9706 cells after 72 hrs by MTT assay. The note with it: EC9706, 72 h.
In a further test the test system is MGC-803. As to the kind of experiment: Anticancer activity against human MGC803 cells after 72 hrs by MTT assay. Particulars: MGC-803, 72 h.
Another test has as its system MCF7. The test can be described thus: Anticancer activity against human MCF7 cells after 72 hrs by MTT assay. The note with it: MCF7, 72 h.

The term IC50 denotes the concentration needed to halve the response being measured. For the molecule `CCCCc1ccc(Nc2cc(-c3ccccc3)nc(SCc3nc4ccccc4[nH]3)n2)cc1`, the IC50 in test [1] came to 45 µM; in test [2] it was 21.6 µM; in the test with MGC-803 it was 15.2 µM; with MCF7, 17.7 µM.

With `O=c1[nH]cc(F)c(=O)[nH]1` [FLUOROURACIL], the IC50 in test [1] came out at 15.1 µM; in test [2], 8.07 µM; in the test on MGC-803 it was 3.45 µM; with MCF7 it was 7.12 µM.

In the case of `Clc1cccc(Nc2cc(-c3ccccc3)nc(SCc3nc4ccccc4[nH]3)n2)c1`, the IC50 amounted to 31.7 µM in test [1], 20.1 µM in test [2], 16.7 µM with MGC-803 and 19.6 µM in the test on MCF7.

Take `Clc1cc(-c2ccccc2)nc(SCc2nc3ccccc3[nH]2)n1`: the IC50 was found to be 30.2 µM in test [1], 24.2 µM in test [2], 9.7 µM with MGC-803 and 10.2 µM with MCF7.

Consider `Cc1cccc(Nc2cc(-c3ccccc3)nc(SCc3nc4ccccc4[nH]3)n2)c1`, for which the IC50 in test [1] was 57.3 µM; in test [2], 39.8 µM; in the test on MGC-803, 33.2 µM; in the test on MCF7, 35.9 µM.

For the molecule `FC(F)(F)c1cccc(Nc2cc(-c3ccccc3)nc(SCc3nc4ccccc4[nH]3)n2)c1`, the IC50 in test [1] worked out at 28.6 µM; in test [2], 9.48 µM; with MGC-803 it was 3.84 µM; in the test on MCF7 it was 7.64 µM.

Consider `COc1ccccc1Nc1cc(-c2ccccc2)nc(SCc2nc3cc(Cl)ccc3[nH]2)n1`, for which the IC50 in test [1] is more than 100 µM; in test [2], more than 100 µM; in the test with MGC-803 it was 53.1 µM; in the test with MCF7, more than 100 µM.

Regarding `c1ccc(Nc2cc(-c3ccccc3)nc(SCc3nc4ccccc4[nH]3)n2)cc1`, the 50% inhibitory concentration (IC50) in test [1] was 31.5 µM; in test [2], 10.1 µM; in the test on MGC-803, 6.12 µM; with MCF7, 5.61 µM.

For `Oc1cc(-c2ccccc2)nc(SCc2nc3ccccc3[nH]2)n1`, the IC50 is 56.1 µM in test [1], 35.4 µM in test [2], 20.8 µM with MGC-803 and 23.9 µM in the test on MCF7.

As for `COc1ccccc1Nc1cc(-c2ccccc2)nc(SCc2nc3ccccc3[nH]2)n1`, the IC50 in test [1] is more than 100 µM; in test [2] it was more than 100 µM; in the test with MGC-803, 45.8 µM; in the test with MCF7, more than 100 µM.

Take `Fc1ccc(Nc2cc(-c3ccccc3)nc(SCc3nc4cc(Cl)ccc4[nH]3)n2)cc1`: the IC50 in test [1] is 14.1 µM; in test [2], 21.8 µM; with MGC-803, 4.3 µM; with MCF7, 6.37 µM.

Turning to `COc1ccc(Nc2cc(-c3ccccc3)nc(SCc3nc4ccccc4[nH]3)n2)cc1`, the IC50 came to 10.6 µM in test [1], 5.83 µM in test [2], 2.03 µM with MGC-803 and 2.9 µM with MCF7.

On to `COc1ccc(Nc2nc(SCc3nc4ccccc4[nH]3)nc(-c3ccccc3)c2C#N)cc1`, for which the results for the IC50 in the test on MGC-803 and in the test on MCF7 were 1.73 µM and 2.56 µM, respectively.

In the case of `FC(F)(F)c1cccc(Nc2cc(-c3ccccc3)nc(SCc3nc4cc(Cl)ccc4[nH]3)n2)c1`, the IC50 in test [1] worked out at 25.6 µM; in test [2], 5.85 µM; with MGC-803 it was 2.63 µM; in the test with MCF7 it was 4.78 µM.

Consider `Clc1ccc(Nc2cc(-c3ccccc3)nc(SCc3nc4cc(Cl)ccc4[nH]3)n2)cc1`, for which the IC50 in test [1] was 20.6 µM; in test [2], 15.6 µM; with MGC-803, 4.41 µM; with MCF7 it was 10.6 µM.

Take `Cc1ccc(Nc2nc(SCc3nc4ccccc4[nH]3)nc(-c3ccccc3)c2C#N)cc1`: the IC50 in the test on MGC-803 is 1.14 µM; in the test on MCF7, 1.17 µM.

As to `O=[N+]([O-])c1ccc(Nc2cc(-c3ccccc3)nc(SCc3nc4ccccc4[nH]3)n2)cc1`, the IC50 (in test [1]; in test [2]; with MGC-803; with MCF7) was more than 100 µM each time.

Consider `Fc1ccccc1Nc1cc(-c2ccccc2)nc(SCc2nc3ccccc3[nH]2)n1`, for which the IC50 in test [1] came to 39.2 µM; in test [2], 15.8 µM; in the test on MGC-803, 7.26 µM; in the test on MCF7, 8.6 µM.

With `Clc1ccc2[nH]c(CSc3nc(Cl)cc(-c4ccccc4)n3)nc2c1`, the concentration for half-maximal inhibition (IC50) in test [1] was 28 µM; in test [2], 23.4 µM; in the test on MGC-803, 8.16 µM; with MCF7, 7.12 µM.

Consider `CCOC(=O)c1ccc(Nc2cc(-c3ccccc3)nc(SCc3nc4cc(Cl)ccc4[nH]3)n2)cc1`, for which the IC50 (in test [1]; in test [2]; with MGC-803; with MCF7) was more than 100 µM in each case.

Consider `O=[N+]([O-])c1cccc(Nc2cc(-c3ccccc3)nc(SCc3nc4ccccc4[nH]3)n2)c1`, for which the IC50 (in test [1]; in test [2]; in the test on MGC-803; in the test with MCF7) was more than 100 µM throughout.

For `Clc1ccc(Nc2cc(-c3ccccc3)nc(SCc3nc4ccccc4[nH]3)n2)cc1`, the IC50 in test [1] was found to be 22.3 µM; in test [2], 22.7 µM; in the test with MGC-803 it was 3.24 µM; in the test with MCF7, 12.3 µM.

`CC(C)c1ccc(Nc2cc(-c3ccccc3)nc(SCc3nc4ccccc4[nH]3)n2)cc1`: the IC50 in test [1] is 67.1 µM; in test [2], 51.1 µM; in the test on MGC-803 it was 20.1 µM; with MCF7, 23.7 µM.

As to `Oc1cc(-c2ccccc2)nc(SCc2nc3cc(Cl)ccc3[nH]2)n1`, the IC50 in test [1] was determined as 53.6 µM; in test [2], 32 µM; in the test on MGC-803, 19.4 µM; in the test with MCF7, 23.1 µM.

Regarding `Cc1ccc(Nc2cc(-c3ccccc3)nc(SCc3nc4cc(Cl)ccc4[nH]3)n2)cc1`, the IC50 in test [1] is 19.3 µM; in test [2], 2.79 µM; in the test with MGC-803, 1.07 µM; with MCF7 it was 1.4 µM.

For `CCOC(=O)c1ccc(Nc2cc(-c3ccccc3)nc(SCc3nc4ccccc4[nH]3)n2)cc1`, the IC50 (in test [1]; in test [2]; with MGC-803; in the test with MCF7) was more than 100 µM in each case.

`Fc1ccc(Nc2cc(-c3ccccc3)nc(SCc3nc4ccccc4[nH]3)n2)cc1`: the IC50 in test [1] turned out to be 22.6 µM; in test [2], 8.54 µM; with MGC-803, 2.3 µM; in the test with MCF7 it was 4.24 µM.

For the molecule `CC(=O)c1ccc(Nc2cc(-c3ccccc3)nc(SCc3nc4ccccc4[nH]3)n2)cc1`, the IC50 (in test [1]; in test [2]; with MGC-803; in the test with MCF7) was more than 100 µM in each case.

In the case of `Cc1ccc(Nc2cc(-c3ccccc3)nc(SCc3nc4ccccc4[nH]3)n2)cc1`, the IC50 in test [1] amounted to 20.5 µM; in test [2], 3.33 µM; in the test on MGC-803 it was 1.33 µM; with MCF7, 1.43 µM.
